# Laboratory results from patent publication US20260076923A1, “METHOD AND COMPOSITION TO REDUCE OR INHIBIT ADVANCED GLYCATION END-PRODUCTS” (NANJING NUTRABUILDING BIO-TECH CO., LTD., priority 2023, published 2026).
# Columns and labels:
# GSH-Px = GSH-Px activity in skin of D-galactose-injected mice; assay type: in vivo, Kunming mice; conditions: end of the trial (14th week), 100 mg/kg each s.c. once daily for 6 weeks, compared to non-supplementation group, FIG. 8
# Procedure: (§1) Six-week-old, male, Kunming mice (n=40), weighed about 30±2 g, were obtained from Cavens Lab Animal (Changzhou, China) and housed in a controlled room (25±2° C., 60% relative humidity, 12 h light/dark cycle) with free access to water and standard laboratory diet. After an acclimation period (1 week), mice were randomly divided into four groups. Each mouse's back skin was chosen as the experimental observation area, a razor was used to shave off the back hair. 5% sodium sulfide solution was applied to the back to remove the hair.
# (§2) All mice were then injected subcutaneously with same volume of D-galactose (1000 mg/kg), once a day for 8 weeks. During the entire experiment, the daily food intake and weight of each mouse were recorded every day, and the D-galactose injection dose were adjusted according to the weight change.
# (§3) The four groups were non-supplement group (Con, Group 1); THC supplement group (100 mg/kg, Group 2); EGT supplement group (100 mg/kg, Group 3); and EGT+THC supplement group (100 mg/kg EGT+100 mg/kg THC, Group 4). Mice in groups 2-4 were injected subcutaneously (s.c.) into their back skins with the corresponding concentration before each major meal once daily for 6 weeks. […]
# (§4) Oxidative stress is increased during aging. […] The levels of H2O2, SOD, CAT, GSH, and GSH-Px in the skin were detected with relative kits as reference. […]
# SOD = SOD activity in skin of D-galactose-injected mice; assay type: in vivo, Kunming mice; conditions: end of the trial (14th week), 100 mg/kg each s.c. once daily for 6 weeks, compared to non-supplementation group, FIG. 5
# Procedure: as §1, §2, §3, §4
# AGEs = test: Measurement of glycation: BSA incubated with D-ribose, fluorescence of the AGEs; assay type: biochemical, bovine; conditions: BSA 1 mg/ml + D-ribose 10 mM in PBS, 37° C., 10 days; THC 10 mM and/or EGT 10 mM; λex=380 nm, λem=450 nm; FIG. 1
# Procedure: The formulation of glycation products was observed placing together a bovine serum albumin (BSA) and D-ribose in the absence of THC and EGT, and in the presence of THC only, EGT only and THC and EGT combination.
# Specifically, a solution of BSA at a concentration of 1 mg/ml dissolved in phosphate-buffered saline (PBS) was incubated at 37° C. for 10 days with D-ribose at a concentration of 10 mM, in the absence of THC and EGT (Group 1), and the presence of THC only (10 mM, Group 2), EGT only (10 mM, Group 3) and the THC (10 mM) and EGT (10 mM) combination (Group 4).
# So, the glycation was evaluated by measuring the fluorescence of the AGEs at λem=450 nm emitted by each sample after excitation at λex=380 nm. The inhibition of glycation was visualized by the decrease in fluorescence compared with the samples treated with the sugar alone.
# CAT = CAT activity in skin of D-galactose-injected mice; assay type: in vivo, Kunming mice; conditions: end of the trial (14th week), 100 mg/kg each s.c. once daily for 6 weeks, compared to non-supplementation group, FIG. 6
# Procedure: as §1, §2, §3, §4
# GSH = GSH activity in skin of D-galactose-injected mice; assay type: in vivo, Kunming mice; conditions: end of the trial (14th week), 100 mg/kg each s.c. once daily for 6 weeks, compared to non-supplementation group, FIG. 7
# Procedure: as §1, §2, §3, §4
smiles,measurement,setting,value
"C[N+](C)(C)[C@@H](Cc1c[nH]c(=S)[nH]1)C(=O)[O-] [EGT, ergothioneine]",GSH-Px activity,GSH-Px,significantly improved
same,SOD activity,SOD,significantly improved
same,percentage inhibition of fluorescence of the AGEs relative to the control (anti-glycation activity),AGEs,fabulous anti-glycation activity
same,CAT activity,CAT,significantly improved
same,GSH activity,GSH,significantly improved
